Measured values from patent publication US10577362B2, “Substituted 2, 4-diamino-quinoline derivatives for use in the treatment of proliferative diseases” (GENOSCIENCE PHARMA, priority 2016, dated 2020).
Counter-ions that a name gives are not always drawn.

Assays:
Type in all cases: cell-based, human
[1] = system: MOLM-14 (acute myeloid leukemia) cell line; assay: CellTiter-Glo luminescent cell viability assay, MOLM-14; conditions: Homo sapiens; for viability at 4 µM: MOLM-14, compound at 4 μM; for viability at 4 µM / viability at 10 µM: 72 h; for viability at 10 µM: MOLM-14, compound at 10 μM
Method: (§1) All cell lines were maintained in medium containing 1% penicillin-streptomycin (Dutscher, P06-07100) and 10% Fetal Bovine Serum (Hyclone Dutscher, RZK35922) cultured at 37° C. with 5% CO2. HepG2 (hepatocellular carcinoma), cell line was cultured in Dulbecco's modified Eagle's medium low glucose (Gibco, 21885025), Huh7 (hepatocellular carcinoma), HCT-116 (colorectal carcinoma), PANC-1 (prancreatic carcinoma) and A375 (malignant melanoma) cell lines were cultured in Dulbecco's modified Eagle's medium (Dutscher, L0103). MOLM-14 (acute myeloid leukemia) cell line was maintained in MEM alpha medium (Gibco, 22561-021). 786-0 (renal adenocarcinoma) cell lines were maintained in RPMI 1640 medium (Dutscher, L0498).
(§2) Cell viability was measured using the CellTiter-Glo® luminescent cell viability assay as described by the manufacturer (Promega, Ref G7571) using an Infinite F200Pro luminometer (Tecan). Briefly, for adherent cells, cells were plated onto 96-well plates (white with clear bottom) in 90 μL of media per well and were allowed to grow overnight before the assay. For cells growing in suspension, cells were plated onto 96-well plates 1 h before the assay.
(§3) Compounds were resuspended in H2O or DMSO and added at different concentrations to each well, and cell cultures were incubated for 72 h. Each diluent (H2O or DMSO) were used as a control, and all compounds were tested in a constant percentage of H2O or DMSO. On the day of the reading, plates are equilibrated 30 min at room temperature before the addition of 100 μL of CellTiter-Glo® and luminescence was measured using an Infinite F200Pro (Tecan). % cell viability were expressed as a percentage of the signal obtained for cell cultures treated with diluent. EC50 values were determined as the dose of compound required to reduce luminescent values to 50% of the signal obtained for cell cultures treated with diluent. The experimental data were analyzed using a computer program, Graphpad Prism v5 (GraphPad Software, Inc. La Jolla, Calif.). All points were at least done in duplicate.

[2] = system: A375 (malignant melanoma) cell line; assay: CellTiter-Glo luminescent cell viability assay, A375; conditions: Homo sapiens, A-375; for viability at 4 µM: A375, compound at 4 μM; for viability at 4 µM / viability at 10 µM: 72 h; for viability at 10 µM: A375, compound at 10 μM
Method: as §1, §2, §3

[3] = system: HCT-116 (colorectal carcinoma) cell line; assay: CellTiter-Glo luminescent cell viability assay, HCT-116; conditions: Homo sapiens; for viability at 4 µM: HCT-116, compound at 4 μM; for viability at 4 µM / viability at 10 µM: 72 h; for viability at 10 µM: HCT-116, compound at 10 μM
Method: as §1, §2, §3

[4] = system: Huh7 (hepatocellular carcinoma) cell line; assay: CellTiter-Glo luminescent cell viability assay, Huh7; conditions: Homo sapiens, Huh-7; for viability at 4 µM: Huh7, compound at 4 μM; for viability at 4 µM / viability at 10 µM: 72 h; for viability at 10 µM: Huh7, compound at 10 μM
Method: as §1, §2, §3

[5] = system: 786-O (renal adenocarcinoma) cell line; assay: CellTiter-Glo luminescent cell viability assay, 786-O; conditions: Homo sapiens, 786-0; for viability at 4 µM / viability at 10 µM: 786-O, 72 h; for viability at 4 µM: compound at 4 μM; for viability at 10 µM: compound at 10 μM
Method: as §1, §2, §3

[6] = system: HepG2 (hepatocellular carcinoma) cell line; assay: CellTiter-Glo luminescent cell viability assay, HepG2; conditions: Homo sapiens; for viability at 4 µM / viability at 10 µM: HepG2, HepG, 72 h; for viability at 4 µM: compound at 4 μM; for viability at 10 µM: compound at 10 μM
Method: as §1, §2, §3

| Compound | viability at 4 µM [1] | viability at 10 µM [1] | viability at 4 µM [2] | viability at 10 µM [2] | viability at 4 µM [3] | viability at 10 µM [3] | viability at 4 µM [4] | viability at 10 µM [4] | viability at 4 µM [5] | viability at 10 µM [5] | viability at 4 µM [6] | viability at 10 µM [6] | EC50 ([1]; MOLM-14 cell line, 72 h incubation, CellTiter-Glo, read-out: EC50, growth inhibition of MOLM-14) | EC50 ([2]; A375 cell line, 72 h incubation, CellTiter-Glo, read-out: EC50, growth inhibition of A375) | EC50 ([3]; HCT-116 cell line, 72 h incubation, CellTiter-Glo, read-out: EC50, growth inhibition of HCT-116) | EC50 ([4]; Huh7 cell line, 72 h incubation, CellTiter-Glo, read-out: EC50, growth inhibition of Huh7) | EC50 ([5]; 786-O cell line, 72 h incubation, CellTiter-Glo, read-out: EC50, growth inhibition of 786-O) | EC50 ([6]; HepG2 cell line, 72 h incubation, CellTiter-Glo, read-out: EC50, growth inhibition of HepG2) |
| --- | --- | --- | --- | --- | --- | --- | --- | --- | --- | --- | --- | --- | --- | --- | --- | --- | --- | --- |
| Cc1nccnc1OC1CCN(c2c(C#N)c(NCc3ccc(Cl)cc3)nc3ccccc23)C1 (stereo not drawn) [Compound 3362CN, 2-(4-chlorobenzylamin)-3-cyano-4-{3-[(3-methylpyrazin-2-yl)oxy]pyrrolidin-1-yl}quinoline] | 105% | 88.6% | 81.6% | 68.6% | 46.8% | 31.4% | 66.7% | 35.1% | 15.3% | 5.6% | 78.5% | 52.5% |  |  |  |  |  |  |
| Clc1ccc(CNc2cc(N3CCC(Oc4ccccc4)CC3)c3ccccc3n2)cc1 [Compound 2940, 2-(4-chlorobenzylamino)-4-(4-phenoxypiperidin-1-yl)-quinoline hydrochloride] |  |  |  |  |  |  |  |  |  |  |  |  | 0.5 to 5 µM | 5 to 10 µM | 0.5 to 5 µM | 5 to 10 µM | 0.5 to 5 µM | 0.5 to 5 µM |
| N#Cc1c(NCc2ccc(Cl)cc2)nc2ccccc2c1N1CCC(Oc2ccccc2)C1 (stereo not drawn) [Compound 3330CN, 2-(4-chlorobenzylamino)-3-cyano-4-(3-phenoxypyrrolidin-1-yl)quinoline] | 102% | 93.6% | 92.9% | 82.4% | 76.8% | 49.7% | 70.6% | 33.7% | 30.4% | 19% | 99.4% | 80.4% |  |  |  |  |  |  |
| N#Cc1c(NCc2ccc(Cl)cc2)nc2ccccc2c1N1CCC(Oc2ccc(Cl)cc2)CC1 [Compound 3226CN, 2-(4-chlorobenzylamino)-3-cyano-4-[4-(4-chlorophenoxy)piperidin-1-yl]quinoline] | 101% | 97.8% | 97.8% | 94.1% | 96.8% | 86.8% | 117% | 109% | 96% | 89.8% | 94% | 82.8% |  |  |  |  |  |  |
| N#Cc1c(NCc2ccc(Cl)cc2)nc2ccccc2c1N1CCC(Oc2ccncc2)C1 (stereo not drawn) [Compound 3344CN, 2-(4-chlorobenzylamino)-3-cyano-4-{3-[(pyridin-4-yl)oxy]pyrrolidin-1-yl}quinoline] | 103% | 57.8% | 83.7% | 60.3% | 91.6% | 48% | 50.2% | 40.1% | 81.9% | 52.6% | 94.1% | 62.7% |  |  |  |  |  |  |
| CC(C)(C)NC1CCN(c2c(F)c(Nc3cccc(Nc4nccc(C(F)(F)F)n4)c3)nc3ccccc23)CC1 [Compound 540F, 2-[3-(4-trifluoromethylpyrimidin-2-ylamino)phenylamino]-3-fluoro-4-(4-tert-butylaminopiperidin-1-yl)quinoline] | 8.8% | 0.3% | 0.4% | 0.3% | 0.4% | 0.3% | 43.3% | 59.4% | 0.8% | 0.3% | 0.3% | 0.2% |  |  |  |  |  |  |
